In the test the target is T1, human PAH with the R408W mutation (A375 R408W cells) (Homo sapiens, UniProt P00439, R408W).
T1 construct: expressed in transfected cells
T1 sequence (P00439 1-452 R408W): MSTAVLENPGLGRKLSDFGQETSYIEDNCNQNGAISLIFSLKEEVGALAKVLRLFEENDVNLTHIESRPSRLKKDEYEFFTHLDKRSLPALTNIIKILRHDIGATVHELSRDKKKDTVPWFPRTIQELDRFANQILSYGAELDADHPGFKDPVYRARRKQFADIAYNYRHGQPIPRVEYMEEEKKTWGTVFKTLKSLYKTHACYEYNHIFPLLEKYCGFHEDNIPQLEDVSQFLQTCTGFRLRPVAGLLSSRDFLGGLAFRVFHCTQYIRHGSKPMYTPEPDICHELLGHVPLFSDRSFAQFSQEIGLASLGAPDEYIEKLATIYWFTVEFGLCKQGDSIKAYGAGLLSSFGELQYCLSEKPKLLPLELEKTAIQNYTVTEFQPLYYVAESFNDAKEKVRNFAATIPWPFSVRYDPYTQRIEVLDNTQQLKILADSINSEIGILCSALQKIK
The test is described as follows: Cell Based Phenylalanine Flux Assay. The conditions noted are these: 24 hrs with compound, then 20 μM sepiapterin and 800 μM 13C9,15N-Phenylalanine for 4 hours, 13C-Tyrosine by LC-MS, average where tested multiple times. In outline:
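Stable R408W PAH A375 cells: 24 h compound pretreatment in duplicate, then 4 h with 800 μM isotope-labelled Phe and 20 μM sepiapterin. Labelled Tyr output by LC-MS; AC50 averaged where repeated.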

Where [1] appears, read: A375 cells expressing R408W PAH.

Drawing on patent US20250171437A1 (Agios Pharmaceuticals,Inc., priority 2022, published 2025), this text covers AC50 for 26 compounds.

Structures are written as SMILES. Bounds are passed on as bounds.

The AC50 is the concentration giving half of the maximal activity seen. Take `C[C@@H](O)c1nc(C(F)F)c(C(=O)N2CCc3[nH]cnc3[C@@H]2c2nc3cccc(F)c3o2)o1` [Example 246, (4-(difluoromethyl)-2-((R)-1-hydroxyethyl)oxazol-5-yl)((R)-4-(7-fluorobenzo[d]oxazol-2-yl)-6,7-dihydro-1H-imidazo[4,5-c]pyridin-5(4H)-yl)methanone]: the AC50 (A375 R408W cells) was ≤ 0.5 µM.

Take `Cn1nccc1C(=O)N1Cc2[nH]cnc2[C@H]1c1nc2ccccc2o1` [Example 924, (S)-(4-(benzo[d]oxazol-2-yl)-4,6-dihydropyrrolo[3,4-d]imidazol-5(1H)-yl)(1-methyl-1H-pyrazol-5-yl)methanone]: the AC50 (A375 R408W cells) is 1 to 5 µM.

Turning to `COc1cccc2oc([C@@H]3c4nc[nH]c4CCN3C(=O)c3ncnn3C)nc12` [Example 903, (S)-(4-(4-methoxybenzo[d]oxazol-2-yl)-6,7-dihydro-1H-imidazo[4,5-c]pyridin-5(4H)-yl)(1-methyl-1H-1,2,4-triazol-5-yl)methanone], the AC50 (A375 R408W cells) lay in the range of 1 to 5 µM.

As for `O=C(c1nnc(C2CC(F)(F)C2)o1)N1CCc2[nH]cnc2C1c1nc2cc(F)ccc2o1` (centres unmarked), under setting [1], the AC50 lay in the range of 1 to 5 µM.

`Cn1cc(-c2nc(C(F)(F)F)c(C(=O)N3CCc4[nH]cnc4[C@H]3c3nc4cccc(F)c4o3)o2)cn1` [Example 669, (S)-(4-(7-fluorobenzo[d]oxazol-2-yl)-6,7-dihydro-1H-imidazo[4,5-c]pyridin-5(4H)-yl)(2-(1-methyl-1H-pyrazol-4-yl)-4-(trifluoromethyl)oxazol-5-yl)methanone]: where the note is “A375 R408W cells”, the AC50 was ≤ 0.5 µM.

Regarding `O=C(c1oc(-c2ccc(C(F)(F)F)cn2)nc1C(F)F)N1CCc2[nH]cnc2[C@H]1c1nc2cc(F)ccc2o1` [Example 444, (S)-(4-(difluoromethyl)-2-(5-(trifluoromethyl)pyridin-2-yl)oxazol-5-yl)(4-(5-fluorobenzo[d]oxazol-2-yl)-6,7-dihydro-1H-imidazo[4,5-c]pyridin-5(4H)-yl)methanone], under “A375 R408W cells”, the AC50 is ≤ 0.5 µM.

For the compound `O=C(c1nnc(-c2ccn(C(F)F)n2)o1)N1CCc2[nH]cnc2C1c1nc2cc(C(F)(F)F)ccc2o1` (centres unmarked), under setting [1], the AC50 lay within 1 to 5 µM.

Take `CC(F)(F)c1ncc(C(=O)N2CCc3[nH]cnc3[C@@H]2c2nc3cc(F)ccc3o2)s1` [Example 36, (R)-(2-(1,1-difluoroethyl)thiazol-5-yl)(4-(5-fluorobenzo[d]oxazol-2-yl)-6,7-dihydro-1H-imidazo[4,5-c]pyridin-5(4H)-yl)methanone]: the AC50 (A375 R408W cells) was in the range of 1 to 5 µM.

As to `Cn1cncc1-c1nc(C(F)F)c(C(=O)N2CCc3[nH]cnc3[C@@H]2c2nc3cc(F)ccc3o2)o1` [Example 688, (R)-(4-(difluoromethyl)-2-(1-methyl-1H-imidazol-5-yl)oxazol-5-yl)(4-(5-fluorobenzo[d]oxazol-2-yl)-6,7-dihydro-1H-imidazo[4,5-c]pyridin-5(4H)-yl)methanone], the AC50 (A375 R408W cells) was in the range of 1 to 5 µM.

Regarding `COc1ccc(-c2nc(C(F)F)c(C(=O)N3CCc4[nH]cnc4[C@@H]3c3nc4cccc(F)c4o3)o2)nc1` [Example 615, (R)-(4-(difluoromethyl)-2-(5-methoxypyridin-2-yl)oxazol-5-yl)(4-(7-fluorobenzo[d]oxazol-2-yl)-6,7-dihydro-1H-imidazo[4,5-c]pyridin-5(4H)-yl)methanone], the AC50 (A375 R408W cells) was ≤ 0.5 µM.

Regarding `CC1CN(C(=O)c2ocnc2C(F)F)[C@@H](c2nc3cccc(F)c3o2)c2nc[nH]c21` (single isomer, unassigned) [Example 805], under “A375 R408W cells”, the AC50 fell in the range of 1 to 5 µM.

As to `Cn1nc(C(F)(F)F)nc1C(=O)N1CCc2[nH]cnc2[C@@H]1c1nc2cccc(F)c2o1` [Example 280, (R)-(4-(7-fluorobenzo[d]oxazol-2-yl)-6,7-dihydro-1H-imidazo[4,5-c]pyridin-5(4H)-yl)(1-methyl-3-(trifluoromethyl)-1H-1,2,4-triazol-5-yl)methanone], where the note is “A375 R408W cells”, the AC50 lay within 1 to 5 µM.

As to `Cc1ccc2oc(C3c4nc[nH]c4CCN3C(=O)c3cnn4cc(CN(C)C)ccc34)nc2c1` (centres unmarked), the AC50 under setting [1] lay within 1 to 5 µM.

As to `CC(C)(O)c1ncc(C(=O)N2CCc3[nH]cnc3[C@H]2c2nc3cccc(F)c3o2)o1` [Example 713, (S)-(4-(7-fluorobenzo[d]oxazol-2-yl)-6,7-dihydro-1H-imidazo[4,5-c]pyridin-5(4H)-yl)(2-(2-hydroxypropan-2-yl)oxazol-5-yl)methanone], where the note is “A375 R408W cells”, the AC50 lay within 0.5 to 1 µM.

Take `N#Cc1nc(N2CCC(F)CC2)oc1C(=O)N1CCc2[nH]cnc2C1c1nc2cc(F)ccc2o1` (centres unmarked): under setting [1], the AC50 was ≥ 5 µM.

Regarding `O=C(c1ccnn1C(F)F)N1CCc2[nH]cnc2[C@@H]1c1nc2c(F)ccc(F)c2o1` [Example 488, (R)-(4-(4,7-difluorobenzo[d]oxazol-2-yl)-6,7-dihydro-1H-imidazo[4,5-c]pyridin-5(4H)-yl)(1-(difluoromethyl)-1H-pyrazol-5-yl)methanone], the AC50 (A375 R408W cells) is 1 to 5 µM.

Consider `CC(C)n1nccc1C(=O)N1CCc2[nH]cnc2C1c1nc2cccc(F)c2o1` (centres unmarked), for which the AC50 under setting [1] lay within 1 to 5 µM.

For `O=C(c1cnn2cc(N3CCC(O)CC3)ccc12)N1CCc2[nH]cnc2C1c1nc2ccccc2o1` (centres unmarked), the AC50 under setting [1] is 1 to 5 µM.

Consider `Cn1cc(-c2nnc(C(=O)N3CCc4[nH]cnc4[C@@H]3c3nc4c(F)c(F)ccc4o3)o2)cn1` [Example 646, (R)-(4-(4,5-difluorobenzo[d]oxazol-2-yl)-6,7-dihydro-1H-imidazo[4,5-c]pyridin-5(4H)-yl)(5-(1-methyl-1H-pyrazol-4-yl)-1,3,4-oxadiazol-2-yl)methanone], for which, under “A375 R408W cells”, the AC50 fell in the range of 1 to 5 µM.

For `Cc1ccc2nc([C@@H]3c4nc[nH]c4CCN3C(=O)c3nnc(-c4ccccn4)o3)oc2c1` [Example 101, (S)-(4-(6-methylbenzo[d]oxazol-2-yl)-6,7-dihydro-1H-imidazo[4,5-c]pyridin-5(4H)-yl)(5-(pyridin-2-yl)-1,3,4-oxadiazol-2-yl)methanone], the AC50 (A375 R408W cells) was 0.5 to 1 µM.

Consider `Cn1cnnc1C(=O)N1CCc2[nH]cnc2C1c1nc2ccc(F)cc2o1` (centres unmarked), for which the concentration at half-maximal activity (AC50) under setting [1] lay in the range of 1 to 5 µM.

As to `CC(C)(O)c1nc(C(F)(F)F)c(C(=O)N2CCc3[nH]cnc3[C@@H]2c2nc3cc(F)ccc3o2)o1` [Example 46, (R)-(4-(5-fluorobenzo[d]oxazol-2-yl)-6,7-dihydro-1H-imidazo[4,5-c]pyridin-5(4H)-yl)(2-(2-hydroxypropan-2-yl)-4-(trifluoromethyl)oxazol-5-yl)methanone], the AC50 (A375 R408W cells) is ≤ 0.5 µM.

For the compound `O=C(CCc1nccs1)N1CCc2[nH]cnc2C1c1nc2cc(F)ccc2o1` (centres unmarked), the AC50 under setting [1] fell in the range of 1 to 5 µM.

Consider `O=C(c1oc(-c2ccncn2)nc1C(F)F)N1CCc2[nH]cnc2[C@@H]1c1nc2cccc(F)c2o1` [Example 774, (R)-(4-(difluoromethyl)-2-(pyrimidin-4-yl)oxazol-5-yl)(4-(7-fluorobenzo[d]oxazol-2-yl)-6,7-dihydro-1H-imidazo[4,5-c]pyridin-5(4H)-yl)methanone], for which the AC50 (A375 R408W cells) was ≤ 0.5 µM.

For `CC(C)(O)c1nc(C(F)F)c(C(=O)N2CCc3[nH]cnc3[C@H]2c2nc3cc(C(F)(F)F)ccc3o2)o1` [Example 327, (S)-(4-(difluoromethyl)-2-(2-hydroxypropan-2-yl)oxazol-5-yl)(4-(5-(trifluoromethyl)benzo[d]oxazol-2-yl)-6,7-dihydro-1H-imidazo[4,5-c]pyridin-5(4H)-yl)methanone], the AC50 (A375 R408W cells) is ≤ 0.5 µM.

Consider `O=C(c1ccnn1CC(F)F)N1CCc2[nH]cnc2[C@@H]1c1nc2ccccc2o1` [Example 836, (R)-(4-(benzo[d]oxazol-2-yl)-6,7-dihydro-1H-imidazo[4,5-c]pyridin-5(4H)-yl)(1-(2,2-difluoroethyl)-1H-pyrazol-5-yl)methanone], for which the AC50 (A375 R408W cells) was 0.5 to 1 µM.
